Test results published in patent US20250281424A1 (New York Blood Center, Inc, priority 2020, published 2025).

Biological target: T1, human PF4 (Homo sapiens, UniProt P02776)
T1 construct: PF4 is a 70 amino acid, lysine-rich 7.8 kDa platelet-specific protein; made in house; host or cells: Escherichia coli BL21DE3 pLysS (pT7-7) and/or Drosophila S2 cells
T1 sequence (P02776 32-101): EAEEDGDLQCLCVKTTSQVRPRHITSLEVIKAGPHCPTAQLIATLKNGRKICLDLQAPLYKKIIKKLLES
Assay: Inhibition of PF4 tetramer formation (BS3 cross-linking, SDS-PAGE)
Assay type: biochemical
Details: for IC50: read-out: IC50 of PF4 tetramer formation inhibition; for inhibition at 1 µM: 1 μM inhibitor; for inhibition at 1 µM / inhibition at 3 µM / inhibition at 5 µM / inhibition at 10 µM: read-out: % inhibition of PF4 tetramer formation at single concentration of inhibitor; for inhibition at 3 µM: 3 μM inhibitor (column A); for inhibition at 5 µM: 5 μM inhibitor; for inhibition at 10 µM: 10 μM inhibitor (column A)
Procedure, shortened: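 Recombinant human wild-type PF4 (E. coli-expressed, heparin-purified), 10 μg/ml in PBS, incubated with compound 15 min at 37° C or 60 min at room temperature, then cross-linked with 0.2 mM BS3 for 30 min at room temperature. Reducing 12% SDS-PAGE; bands quantified as % tetramer, trimer, dimer, monomer versus compound-free control.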

CC(C)(C)OC(=O)N1CCC[C@H]1C(=O)C1C(=O)c2ccc(C(c3ccc4c(c3)C(=O)C(C(=O)[C@@H]3CCCN3C(=O)OC(C)(C)C)C4=O)(C(F)(F)F)C(F)(F)F)cc2C1=O (stereo partly drawn) [Example 195, tert-butyl (2S)-2-[5-(2-{2-[(2S)-1-[(tert-butoxy)carbonyl]pyrrolidine-2-carbonyl]-1,3-dioxo-2,3-dihydro-1H-inden-5-yl}-1,1,1,3,3,3-hexafluoropropan-2-yl)-1,3-dioxo-2,3-dihydro-1H-indene-2-carbonyl]pyrrolidine-1-carboxylate]
IC50: 4000 nM

CC(C)(C)OC(=O)N1CCOC(C(=O)C2C(=O)c3ccc(C(=O)c4ccc5c(c4)C(=O)C(C(=O)C4CN(C(=O)OC(C)(C)C)CCO4)C5=O)cc3C2=O)C1 (stereo not shown) [Example 240, tert-butyl 2-[5-(2-{4-[(tert-butoxy)carbonyl]morpholine-2-carbonyl}-1,3-dioxo-2,3-dihydro-1H-indene-5-carbonyl)-1,3-dioxo-2,3-dihydro-1H-indene-2-carbonyl]morpholine-4-carboxylate]
inhibition at 1 µM: 14%
inhibition at 3 µM: 32%

CC(C)(C)OC(=O)NCCCC(=O)C1C(=O)c2ccc(S(=O)(=O)c3ccc4c(c3)C(=O)C(C(=O)CCCNC(=O)OC(C)(C)C)C4=O)cc2C1=O (stereo not shown) [Example 387, tert-butyl N-[4-(5-{[2-(4-{[(tert-butoxy)carbonyl]amino}butanoyl)-1,3-dioxo-2,3-dihydro-1H-inden-5-yl]sulfonyl}-1,3-dioxo-2,3-dihydro-1H-inden-2-yl)-4-oxobutyl]carbamate]
inhibition at 1 µM: 16%
inhibition at 3 µM: 52%

O=C(O)CCC(=O)C1C(=O)c2ccc(C(=O)c3ccc4c(c3)C(=O)C(C(=O)CCC(=O)O)C4=O)cc2C1=O (stereo not shown) [Example 130, 4-{5-[2-(3-carboxypropanoyl)-1,3-dioxo-2,3-dihydro-1H-indene-5-carbonyl]-1,3-dioxo-2,3-dihydro-1H-inden-2-yl}-4-oxobutanoic acid]
IC50: 1400 nM

O=C1CC(=O)c2cc(-c3ccc4c(c3)C(=O)CC4=O)ccc21 [Example 75, 1h,1′h,2h,2′h,3h,3′h-[5,5′-biindene]-1,1′,3,3′-tetrone]
inhibition at 5 µM: 54%
inhibition at 10 µM: 85%

O=C1CC(=O)c2cc(C(c3ccc4c(c3)C(=O)CC4=O)(C(F)(F)F)C(F)(F)F)ccc21 [Example 13, 5-(2,2,2-trifluoro-1-(5-indan-1,3-dionyl)-1-trifluoromethyl-ethyl)-indan-1,3-dione]
inhibition at 5 µM: 16%
inhibition at 10 µM: 74%

O=C(c1ccc2c(c1)C(=O)C(C(=O)Cc1ccccc1)C2=O)c1ccc2c(c1)C(=O)C(C(=O)Cc1ccccc1)C2=O (stereo not shown) [Example 190, 5-[1,3-dioxo-2-(2-phenylacetyl)-2,3-dihydro-1H-indene-5-carbonyl]-2-(2-phenylacetyl)-2,3-dihydro-1H-indene-1,3-dione]
inhibition at 5 µM: 79%
inhibition at 10 µM: 86%

CC(C)(C)OC(=O)NCC(=O)C1C(=O)c2ccc(C#Cc3ccc4c(c3)C(=O)C(C(=O)CNC(=O)OC(C)(C)C)C4=O)cc2C1=O (stereo not shown) [Example 319, tert-butyl N-[2-(5-{2-[2-(2-{[(tert-butoxy)carbonyl]amino}acetyl)-1,3-dioxo-2,3-dihydro-1H-inden-5-yl]ethynyl}-1,3-dioxo-2,3-dihydro-1H-inden-2-yl)-2-oxoethyl]carbamate]
inhibition at 1 µM: 13%
inhibition at 3 µM: 22%

CC(C)CCCC(=O)C1C(=O)c2ccc(C(=O)c3ccc4c(c3)C(=O)C(C(=O)CCCC(C)C)C4=O)cc2C1=O (stereo not shown) [Example 189, 2-(5-methylhexanoyl)-5-[2-(5-methylhexanoyl)-1,3-dioxo-2,3-dihydro-1H-indene-5-carbonyl]-2,3-dihydro-1H-indene-1,3-dione]
inhibition at 5 µM: 62%
inhibition at 10 µM: 71%

O=C(c1ccc2c(c1)C(=O)C(C(=O)Nc1cccc(Cl)c1)C2=O)c1ccc2c(c1)C(=O)C(C(=O)Nc1cccc(Cl)c1)C2=O (stereo not shown) [Example 79, N-(3-chlorophenyl)-5-{2-[(3-chlorophenyl)carbamoyl]-1,3-dioxo-2,3-dihydro-1H-indene-5-carbonyl}-1,3-dioxo-2,3-dihydro-1H-indene-2-carboxamide]
IC50: 1000 nM

CCCC(=O)C1C(=O)c2ccc(Oc3ccc4c(c3)C(=O)C(C(=O)CCC)C4=O)cc2C1=O (stereo not shown) [Example 321, 2-butanoyl-5-[(2-butanoyl-1,3-dioxo-2,3-dihydro-1H-inden-5-yl)oxy]-2,3-dihydro-1H-indene-1,3-dione]
inhibition at 1 µM: 17%
inhibition at 3 µM: 23%

CC(C)(C)OC(=O)NCC(=O)C1C(=O)c2ccc(C(=O)c3ccc4c(c3)C(=O)C(C(=O)CNC(=O)OC(C)(C)C)C4=O)cc2C1=O (stereo not shown) [Example 173, tert-butyl N-(2-{5-[2-(2-{[(tert-butoxy)carbonyl]amino}acetyl)-1,3-dioxo-2,3-dihydro-1H-indene-5-carbonyl]-1,3-dioxo-2,3-dihydro-1H-inden-2-yl}-2-oxoethyl) carbamate]
inhibition at 5 µM: 87%
inhibition at 10 µM: 97%
IC50: 2200 nM

COCCOCCNC(=O)C1C(=O)c2ccc(S(=O)(=O)c3ccc4c(c3)C(=O)C(C(=O)NCCOCCOC)C4=O)cc2C1=O (stereo not shown) [Example 295, N-[2-(2-methoxyethoxy)ethyl]-5-[(2-{[2-(2-methoxyethoxy)ethyl]carbamoyl}-1,3-dioxo-2,3-dihydro-1H-inden-5-yl)sulfonyl]-1,3-dioxo-2,3-dihydro-1H-indene-2-carboxamide]
inhibition at 1 µM: 29%
inhibition at 3 µM: 100%
IC50: 1100 nM

Cc1ccccc1NC(=O)C1C(=O)c2ccc(C(=O)c3ccc4c(c3)C(=O)C(C(=O)Nc3ccccc3C)C4=O)cc2C1=O (stereo not shown) [Example 81, N-(2-methylphenyl)-5-{2-[(2-methylphenyl)carbamoyl]-1,3-dioxo-2,3-dihydro-1H-indene-5-carbonyl}-1,3-dioxo-2,3-dihydro-1H-indene-2-carboxamide]
IC50: 4600 nM

O=C(CC1CC1)C1C(=O)c2ccc(S(=O)(=O)c3ccc4c(c3)C(=O)C(C(=O)CC3CC3)C4=O)cc2C1=O (stereo not shown) [Example 149, 2-(2-cyclopropylacetyl)-5-{[2-(2-cyclopropylacetyl)-1,3-dioxo-2,3-dihydro-1H-inden-5-yl]sulfonyl}-2,3-dihydro-1H-indene-1,3-dione]
inhibition at 5 µM: 64%
inhibition at 10 µM: 53%

O=C(O)CNC(=O)C1C(=O)c2ccc(Oc3ccc4c(c3)C(=O)C(C(=O)NCC(=O)O)C4=O)cc2C1=O (stereo not shown) [Example 307, 2-{[5-({2-[(carboxymethyl)carbamoyl]-1,3-dioxo-2,3-dihydro-1H-inden-5-yl}oxy)-1,3-dioxo-2,3-dihydro-1H-inden-2-yl]formamido}acetic acid]
inhibition at 1 µM: 15%
inhibition at 3 µM: 47%

C[C@H](NC(=O)OC(C)(C)C)C(=O)C1C(=O)c2ccc(C(=O)c3ccc4c(c3)C(=O)C(C(=O)[C@H](C)NC(=O)OC(C)(C)C)C4=O)cc2C1=O (stereo partly drawn) [Example 179, tert-butyl N-[(2S)-1-(5-{2-[(2S)-2-{[(tert-butoxy)carbonyl]amino}propanoyl]-1,3-dioxo-2,3-dihydro-1H-indene-5-carbonyl}-1,3-dioxo-2,3-dihydro-1H-inden-2-yl)-1-oxopropan-2-yl]carbamate]
inhibition at 5 µM: 81%
inhibition at 10 µM: 92%
IC50: ~6000 nM

CC(C)(C)OC(=O)NCCC(=O)C1C(=O)c2ccc(Oc3ccc4c(c3)C(=O)C(C(=O)CCNC(=O)OC(C)(C)C)C4=O)cc2C1=O (stereo not shown) [Example 267, tert-butyl N-[3-(5-{[2-(3-{[(tert-butoxy)carbonyl]amino}propanoyl)-1,3-dioxo-2,3-dihydro-1H-inden-5-yl]oxy}-1,3-dioxo-2,3-dihydro-1H-inden-2-yl)-3-oxopropyl]carbamate]
inhibition at 10 µM: 100%

O=C(O)CCCC(=O)C1C(=O)c2ccc(-c3ccc4c(c3)C(=O)C(C(=O)CCCC(=O)O)C4=O)cc2C1=O (stereo not shown) [Example 227, 5-[2′-(4-carboxybutanoyl)-1,1′,3,3′-tetraoxo-1H,1′H,2H, 2′H,3H,3′H-[5,5′-biinden]-2-yi]-5-oxopentanoic acid]
IC50: 1800 nM

CC(=O)NCC(=O)C1C(=O)c2ccc(S(=O)(=O)c3ccc4c(c3)C(=O)C(C(=O)CNC(C)=O)C4=O)cc2C1=O (stereo not shown) [Example 175, N-[2-(5-{[2-(2-acetamidoacetyl)-1,3-dioxo-2,3-dihydro-1H-inden-5-yl]sulfonyl}-1,3-dioxo-2,3-dihydro-1H-inden-2-yl)-2-oxoethyl]acetamide]
inhibition at 5 µM: 90%
inhibition at 10 µM: 97%
IC50: 1100 nM

O=C(c1ccc2c(c1)C(=O)C(C(=O)Cn1cnnn1)C2=O)c1ccc2c(c1)C(=O)C(C(=O)Cn1cnnn1)C2=O (stereo not shown) [Example 168, 5-{1,3-dioxo-2-[2-(1H-1,2,3,4-tetrazol-1-yl)acetyl]-2,3-dihydro-1H-indene-5-carbonyl}-2-[2-(1H-1,2,3,4-tetrazol-1-yl)acetyl]-2,3-dihydro-1H-indene-1,3-dione]
inhibition at 5 µM: 68%
inhibition at 10 µM: 89%
IC50: 4300 nM

O=C(c1ccc2c(c1)C(=O)C(C(=O)CCC(=O)c1cccc(Cl)c1Cl)C2=O)c1ccc2c(c1)C(=O)C(C(=O)CCC(=O)c1cccc(Cl)c1Cl)C2=O (stereo not shown) [Example 253, 2-[4-(2,3-dichlorophenyl)-4-oxobutanoyl]-5-{2-[4-(2,3-dichlorophenyl)-4-oxobutanoyl]-1,3-dioxo-2,3-dihydro-1H-indene-5-carbonyl}-2,3-dihydro-1H-indene-1,3-dione]
inhibition at 1 µM: 20%
inhibition at 3 µM: 20%
